Here are results for 14 compounds from US20050215562A1, “Methods for treating protein aggregation disorders” (priority 2003, published 2005).

The target of experiment [1] is T1, NAC peptide (Homo sapiens, UniProt P37840).
T1 construct: a 35 amino acid peptide corresponding to residues 61 to 95 of the α-synuclein protein; made in house; host or cells: chemical solid-phase peptide synthesis (Fmoc), not expressed
Description: Circular dichroism (CD) analysis of NAC peptide conformation after incubation with test compounds (fibrillogenesis assay). The experiment is classed as biochemical. Conditions: for CD Result (NAC conformation observed): 125 μL of 40 μM NAC peptide with 125 μL of 200 μM test compound, pH 7.4, 37° C., conformations over repeated trials; for Activity (CD): active if it prevents the transition to β-turn/β-sheet in 50% or more of the trials; for Activity: active trials / trials: number of CD trials in which transition to β-turn/β-sheet was prevented, over trials run. The arrangement: key to CD Result (NAC conformation observed): Random Coil: signifies that the NAC in the sample was observed to have been maintained in its original random coil conformation indicating that the compound coincubated with NAC is active; signifies that the compound was not able to prevent the shift from random coil to β-sheet; β-sheet/β-turn: signifies that the compound was not able to prevent the shift from random coil to β-sheet; Transition: signifies that the NAC was observed to be in the process of converting from random coil to β-sheet indicating that the compound was able to slow down the conformational change and indicates activity. The procedure: 2 mM Solutions were prepared in TBSA buffer (Tris 0.02 M, NaCl 0.15 M, NaN3 0.005%, pH 7.4) and stored at 4° C. For the assays, compounds were diluted to the desired concentrations in TBSAE buffer (Tris 0.02 M, NaCl 0.15 M, NaN3 0.005%, EDTA 100 μM, pH 7.4) and combined with the NAC peptides.
(§1) Fibrillogenesis assays were employed to identify test compounds that inhibit NAC's ability to assemble into fibers. Following removal of HFIP by evaporation under N2 gas, 20 μM NAC peptide is incubated in the assay buffer (0.02M Tris, 0.15 M NaCl, 0.005% NaN3, 100 uM EDTA) at 37° C. in a Perkin-Elmer HTS 7000 plus microplate reader with shaking for 1 minute every twenty minutes. The presence of fibers can be monitored by three different methods.
(§2) The following assays were set up in clear polystyrene 96 well microplates by combining 125 μL of 40 μM NAC peptide with 125 μL of 200 μM test compound in 0.02M Tris, 0.15 M NaCl, 0.005% NaN3, […]. The microplates were sealed with a plastic sheet and incubated at 37° C. in a Perkin-Elmer HTS 7000 microplate reader with shaking for 1 minute, every 20 minutes. • Thioflavin T Analysis. To perform this assay 5 μM Thioflavin T is added to the NAC assembly conditions described above. The fluorescence is measured at 430 excitation/485 emission every twenty minutes with a Perkin-Elmer HTS microplate reader for the duration of the assay. […] This assay allows for the identification of compounds that can inhibit this increase in fluorescence upon incubation. • Turbidity Analysis. Alternatively, NAC peptide that has been incubated with test compounds in the appropriate assembly conditions can be analyzed by reading the absorbance at 405 nm to follow the turbidity of the solution which is also an indication of the formation of aggregates. • Circular Dichroism (CD) Analysis. […] This assay allows for the identification of compounds that can prevent NAC from adopting a β-sheet/β-turn conformation upon incubation. • At the appropriate time point, during the incubation, the test solutions were transferred to 0.1-cm path length quartz cuvettes and scanned by CD spectroscopy between 190 and 260 nm, with a resolution of 0.1 nm and a bandwidth of 1 nm using a Jasco J-715 spectropolarimeter at 37° C. […] At the time point at which CD scans are performed a 3 μl aliquot is removed from the sample, spotted onto a Formvar grid and then negatively stained with 4% uranyl acetate. The grids were examined for the presence of fibrils and amorphous aggregates using a JOEL 2000 transmission electron microscope at a 25,000 × magnification. This assay can be used to confirm the absence of fibers in the presence of compounds which inhibit NAC assembly by ThT and CD. The final results were obtained by averaging 10 complete sectors.
For compounds that have been tested multiple times, a compound is classified as active if it prevents the transition to β-turn/β-sheet in 50% or more of the trials.
On the technique in general: Circular dichroism is widely used to follow secondary structure.

Experiment [2] addresses T1, NAC peptide. Description: Binding of compounds to NAC peptide by electrospray mass spectrometry. Conditions: area of bound NAC-compound complex peaks divided by area of unbound NAC peaks; 5:1 compound:NAC, pH 7.4, 6.6% EtOH. The protocol:
The ability of the compounds of the present invention to bind to NAC peptide in aqueous solution was evaluated. The binding ability correlates to the intensities of the peptide-compound complex peaks observed by the Electrospray Mass Spectrum. Millipore distilled deionized water was used to prepare all aqueous solutions. For pH determination a Beckman (Φ36 pH meter fitted with a Corning Semi-Micro Combination pH Electrode was employed.
The optimal cone voltage was determined to be 20V.
Mass spectrometry: Mass spectrometric analysis was performed using a Waters ZQ 4000 mass spectrometer equipped with a Waters 2795 sample manager. MassLynx 4.0 (earlier by MassLynx 3.5) was used for data processing and analysis. Test compounds were mixed with disaggregated peptides in aqueous media (6.6% EtOH) at a 5:1 ratio (20 μM NAC: 100 μM of test compound or 40 μM NAC : 200 μM of test compound). The pH of the mixture was adjusted to 7.4 (±0.2) using 0.1% NaOH (3-5 μL). Periodically, NAC peptide solution at 20 μM or 40 μM was also prepared in the same fashion and run as control. The spectra were obtained by introducing the solutions to the electrospray source by direct infusion using a syringe pump at a flow rate of 25 μl/min, and scanning from 100 to 2100 Da in the positive mode. The scan time was 0.9 sec per scan with an inter-scan delay of 0.1 sec and the run time was 5 min for each sample. All the mass spectra were sum of 300 scans. The desolvation and source temperature was 70° C. and the cone and capillary voltage were maintained at 20 V and 3.2 kV respectively.
The total area under the peaks for the bound NAC-compound complex divided by total area under the peaks for unbound NAC was determined for each compound tested.

The target of experiment [3] is T1, NAC peptide. Description: Electron microscopy (EM) analysis of NAC fiber formation in the fibrillogenesis assay. The experiment is classed as biochemical. As to conditions: for EM Score: amount of fibers compared to NAC alone (100% fibers), 10 frames of a 300-mesh grid. The protocol:
as §1, §2
Analysis by Electron Microscopy: The fibrillogenesis assays performed for CD analysis were also spotted for EM. The electron micrographs are visually examined and a score is assigned as follows. Briefly, 10 representative frames from a 300-mesh grid are analyzed and given a score representing the amount of fibers formed in the sample as compared to a micrograph with NAC alone without a test compound (100% fibers). A score was assigned based on this analysis on a scale from 0% to 100% fibers: (−) indicates an observation of less than about 25% fibers; (+) indicates about 25% fibers; (++) about 50% fibers; (+++) indicates about 75% fibers; and (++++) 100% fibers. […]

As to `NCCCCS(=O)(=O)O` [compound 6], in experiment [1], the “CD Result (NAC conformation observed)” value is “β-turn transition”, the “Activity (CD)” value was “Yes” and the “Activity: active trials / trials” value is on record as “½”. In addition, the “Binding Strength” value in experiment [2] was “+++ (Strong; when the total binding is 120% and higher)”.
Take `NCCCCS(=O)(=O)O` [compound 7]: in experiment [1], the “CD Result (NAC conformation observed)” value was “β- turn/βsheet Random coil Transition”, the “Activity (CD)” value was “Yes” and the “Activity: active trials / trials” value is 2/4. In addition, in experiment [2], the “Binding Strength” value is “++ (Moderate; when the total binding is between 120% and 70%)”.
Consider `CCCCCCCCCCCCS(C)(C)CCCS(C)(=O)=O` [compound 9], for which, in experiment [1], the “CD Result (NAC conformation observed)” value is recorded as “Random Coil”, the “Activity (CD)” value is given as “Yes” and the “Activity: active trials / trials” value is 4/4. In addition, the “Binding Strength” value in experiment [2] was “− (None; when the total binding is between 30% and 0%)”.
On to `CCCCCCCCCCCCCCS(C)(C)CCCS(=O)(=O)O` [compound 10], for which, in experiment [1], the “CD Result (NAC conformation observed)” value is reported as “Random Coil”, the “Activity (CD)” value was “Yes” and the “Activity: active trials / trials” value is recorded as 5/5. The “Binding Strength” value in experiment [2] is “+ (Weak; when the total binding is between 70% and 30%)”.
With `CCCCCCCCCCCCCCCCS(C)(C)CCCS(=O)(=O)O` [compound 11], in experiment [1], the “CD Result (NAC conformation observed)” value was “Random Coil”, the “Activity (CD)” value is listed as “Coil” and the “Activity: active trials / trials” value is 4/4. In addition, in experiment [2], the “Binding Strength” value is “++ (Moderate; when the total binding is between 120% and 70%)”.
For `O=S(=O)(O)CCCN1CCN(Cc2ccccc2)CC1` [compound 12], in experiment [1], the “CD Result (NAC conformation observed)” value is given as “β-turn Transition”, the “Activity (CD)” value was “No” and the “Activity: active trials / trials” value was “⅓”. The “Binding Strength” value in experiment [2] is “++ (Moderate; when the total binding is between 120% and 70%)”.
As to `O=S(=O)(O)CCCN1CCc2c([nH]c3ccccc23)C1` [compound 13], in experiment [1], the “CD Result (NAC conformation observed)” value is “Random coil Transition”, the “Activity (CD)” value is reported as “Yes” and the “Activity: active trials / trials” value is recorded as 3/3. The “Binding Strength” value in experiment [2] is “+++ (Strong; when the total binding is 120% and higher)”.
`CC(=O)C1(c2ccccc2)CCN(CCCS(=O)(=O)O)CC1` [compound 15]: in experiment [1], the “CD Result (NAC conformation observed)” value is listed as “β-sheet/β- turn Random Coil”, the “Activity (CD)” value was “No” and the “Activity: active trials / trials” value is listed as “¼”. In addition, the “Binding Strength” value in experiment [2] was “+++ (Strong; when the total binding is 120% and higher)”.
For `CC[N+](CC)(CC)CCCS(=O)(=O)[O-]` [compound 16], in experiment [1], the “CD Result (NAC conformation observed)” value was “Random Coil”, the “Activity (CD)” value is recorded as “Yes” and the “Activity: active trials / trials” value is recorded as 3/3. Besides, the “Binding Strength” value in experiment [2] is recorded as “Indeterminant”.
As to `CC[N+](CC)(CC)CCCS(=O)(=O)[O-]` [drawing 62], in experiment [3], the “Activity (EM)” value is reported as “Yes” and the “EM Score” value is given as “AA+”.
On the same counts, the results for `NCCCCS(=O)(=O)O` [drawing 63] are “Yes” and “AA+”.
For `O=S(=O)(O)CC(O)CNC1CCCCC1` (stereo not shown) [drawing 64], in experiment [3], the “Activity (EM)” value is “No” and the “EM Score” value is reported as “+++ ((+++) indicates about 75% fibers)”.
On the same counts, the results for `O=S(=O)(O)CCC[N+]12CCC(CC1)CC2` [drawing 65] are “Yes” and “+ ((+) indicates about 25% fibers)”.
Consider heparin [reference compound], for which the “Effect on NAC conformation by CD” value in experiment [1] (NAC incubated in presence of heparin, minimum at 218 nm typical of β-sheet) is given as “promotes a conformational change”. For the same compound, the “Appearance of NAC fibers by EM” value in experiment [3] (NAC in the presence of heparin) was “longer and more interwined fibers”.
